# In patent US20070155730A1, “Benzodiazepine And Benzopiperazine Analog Inhibitors Of Histone Deacetylase” (METHYLGENE, INC., priority 2005, published 2007):
# pIC50: −log10 of the molar value.
# Molecular target: histone deacetylase (HDAC)
# Test: Inhibition of Histone Deacetylase Enzymatic Activity
# Assay type: biochemical
# Details: substrate Boc-Lys(Ac)-AMC, Fluor-de-Lys developer, 37° C., 20 min; against one or more of HDAC-1 to HDAC-11, SirT1 to SirT7 (isoform not given); read-out: HDAC Inhibitory Activity (IC50)
# In short: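 Enzyme preincubated with compound at room temperature in 25 mM HEPES pH 8.0, 137 mM NaCl, 2.7 mM KCl, 1 mM MgCl2; reaction started at 37 °C with Boc-Lys(Ac)-AMC substrate. Fluorescence read ex 360/em 470 nm after 10 min dark incubation; activity binned into ranges A–D (<0.05 to <10 μM).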
row,SMILES,pIC50
1,"CC(C)[C@H]1C(=O)Nc2cc(C(=O)NO)ccc2N1Cc1ccc(F)cc1 [Compound 16a, (S)-1-(4-fluorobenzyl)-N-hydroxy-2-isopropyl-3-oxo-1,2,3,4-tetrahydroquinoxaline-6-carboxamide]",5.00 to 5.70
2,"O=C(NO)c1ccc2c(c1)NC(=O)[C@H](Cc1ccccc1)N2 [Compound 4i, (S)-2-Benzyl-1,2,3,4-tetrahydro-N-hydroxy-3-oxoquinoxaline-6-carboxamide]",5.00 to 5.70
3,"O=C(NO)c1ccc(CN2c3ccccc3NC(=O)[C@@H]2Cc2ccccc2)cc1 [Compound 54b4, (S)-4-((2-benzyl-3-oxo-3,4-dihydroquinoxalin-1(2H)-yl)methyl)-N-hydroxybenzamide]",> 7.30
4,"CC(C)[C@@H]1Nc2ccc(NC(=O)CCCCCCC(=O)NO)cc2NC1=O [Compound 24a, N1—((S)-1,2,3,4-Tetrahydro-2-isopropyl-3-oxoquinoxalin-6-yl)-N8-hydroxyoctanediamide]",6.30 to 7.30
5,"CC(C)C[C@@H]1Nc2ccc(C(=O)NO)cc2NC1=O [Compound 4k, (S)-1,2,3,4-Tetrahydro-N-hydroxy-2-isobutyl-3-oxoquinoxaline-6-carboxamide]",5.00 to 5.70

# Second part, the compound after the results:
row,pIC50,SMILES
1,> 7.30,"O=C(NO)c1ccc(CN2c3ccccc3NC(=O)[C@H]2Cc2ccc3ccccc3c2)cc1 [Compound 54b10, (R)—N-hydroxy-4-((2-(naphthalen-2-ylmethyl)-3-oxo-3,4-dihydroquinoxalin-1(2H)-yl)methyl)benzamide]"
2,5.00 to 5.70,"CC(C)[C@@H]1NC(=O)c2ccc(C(=O)NO)cc2NC1=O [Compound 97b, (S)-N-Hydroxy-3-isopropyl-2,5-dioxo-2,3,4,5-tetrahydro-1H-benzo[e][1,4]diazepine-8-carboxamide]"
3,6.30 to 7.30,"O=C(CCCCCN1C(=O)[C@@H](c2ccccc2)NC(=O)c2ccccc21)NO [Compound 68b4, 6-((R)-2,3,4,5-tetrahydro-2,5-dioxo-3-phenylbenzo[e][1,4]diazepin-1-yl)-N-hydroxyhexanamide]"
4,> 7.30,"CC(C)(C)OC(=O)NCCCC[C@@H]1C(=O)Nc2ccccc2N1Cc1ccc(C(=O)NO)cc1 [Compound 54b9, (R)-tert-butyl 4-(1-(4-(hydroxycarbamoyl)benzyl)-3-oxo-1,2,3,4-tetrahydroquinoxalin-2-yl)butylcarbamate]"
5,> 7.30,"O=C(NO)c1ccc(NC(=O)N2c3ccccc3NC(=O)[C@H]2Cc2ccc(F)c(F)c2)cc1 [Compound 116, (R)-2-(3,4-Difluorobenzyl)-N-(4-(hydroxycarbamoyl)phenyl)-3-oxo-3,4-dihydroquinoxaline-1(2H)-carboxamide]"
6,6.30 to 7.30,"Nc1ccccc1NC(=O)c1ccc(CN2c3ccccc3NC(=O)[C@@H]2Cc2cccs2)cc1 [Compound 54c, (S)—N-(2-aminophenyl)-4-((3-oxo-2-(thiophen-2-ylmethyl)-3,4-dihydroquinoxalin-1(2H)-yl)methyl)benzamide]"
